For series [1], the system named is HSV1 E377. As to the kind of experiment: microbe, parasite or virus in culture. In kind it is cell-based, Herpes Simplex Virus 1. The procedure: (§1) Screening Assays for HSV-1, HSV-2, CMV, and VZV
(§2) Cells. Human foreskin fibroblast (HFF) cells were prepared from human foreskin tissue. The tissue was incubated at 4° C. for 4 h in Clinical Medium and then placed in phosphate buffered saline (PBS) to remove the red blood cells, and resuspended in trypsin/EDTA solution. The tissue suspension was incubated at 37° C. and gently agitated to disperse the cells, which were collected by centrifugation. Cells were resuspended in 4 ml Clinical Medium and placed in a flask and incubated at 37° C. in a humidified CO2 incubator for 24 h. The media was then replaced with fresh Clinical Medium and the cell growth was monitored daily until a confluent monolayer has formed. The HFF cells were then expanded through serial passages in standard growth medium of MEM with Earl's salts supplemented with 10% FBS and antibiotics. The cells were passaged routinely and used for assays at or below passage 10.
(§3) Primary Cytopathic Effect (CPE) Reduction Assay. Low passage (3-10) HFF cells were trypsinized, counted, and seeded into 96 well tissue culture plates in 0.1 ml of MEM supplemented with 10% FBS. The cells were then incubated for 24 h at 37° C. The media was then removed and 100 μl of MEM containing 2% FBS was added to all but the first row. In the first row, 125 μl of media containing the experimental drug was added in triplicate wells. Media alone was added to both cell and virus control wells. The drug in the first row of wells was then diluted serially 1:5 throughout the remaining. The plates were then incubated for 60 min and 100 μl of a virus suspension was added to each well, excluding cell control wells which received 100 μl of MEM. The plates were then incubated at 37° C. in a CO2 incubator for three days for HSV-1 and HSV-2, 10 days for VZV, or 14 d for CMV. After the incubation period, media was aspirated and the cells stained with crystal violet in formalin for 4 h. The stain was then removed and the plates were rinsed until all excess stain was removed. The plates were allowed to dry for 24 h and the amount of CPE in each row determined using a BioTek Multiplate Autoreader. EC50 and CC50 values were determined by comparing drug treated and untreated cells using a computer program.

The test system of series [2] is mCMV Smith. As to the kind of experiment: Primary CPE reduction assay, mCMV Smith. To be noted: for EC50: Murid betaherpesvirus 1, read-out: EC50 (50% reduction in the Cytopathic Effect of the virus). Type of series: cell-based, murine Cytomegalovirus. For orientation: Protection from cytopathic effect is a common read-out in antiviral testing.
Series [3] has as its system Human Cytomegalovirus Strain AD169. Kind of series: Additional study versus Human Cytomegalovirus Strain AD169 in HFF cells (procedures of US 2011/0263535 A1). In kind it is cell-based. The procedure: Additional studies in HFF cells were performed using the procedures as outlined in US Patent Application Publication No: 2011/0263535 A1 with compounds of 120, 121, and 122. Each of the compounds were tested versus Human Cytomegalovirus Strain AD169 in HFF cells using ganciclovir as a comparator.

Series [4] deals with HSV2 G. As to the kind of experiment: Primary CPE reduction assay in HFF cells, HSV2 G. In kind it is cell-based, Herpes Simplex Virus 2. The procedure:
as §1, §2, §3

Series [5] has as its system hCMV2 GDGRK17. As to the kind of experiment: Primary CPE reduction assay in HFF cells, hCMV GDGRK17. Type of series: cell-based, human Cytomegalovirus. To be noted: for EC50: Human betaherpesvirus 5, HFF, read-out: EC50 (50% reduction in the Cytopathic Effect of the virus); for TI (therapeutic index derived from EC50/CC50): hCMV2 GDGRK17, HFF cells. As to the method: as §1, §2, §3

In series [6] the test system is hCMV1 AD169. Kind of series: Primary CPE reduction assay in HFF cells, hCMV AD169. In kind it is cell-based, human Cytomegalovirus. As to the method: as §1, §2, §3
In series [7] the test system is VZV Ellen. As to the kind of experiment: microbe, parasite or virus in culture. In kind it is cell-based, Vericella Zoster Virus. As to the method: as §1, §2, §3
Series [8] has as its system HSV1 strain DM2.1. As to the kind of experiment: Primary CPE reduction assay in HFF cells, HSV1 strain DM2.1. Type of series: cell-based, Herpes Simplex Virus 1. As to the method: as §1, §2
Primary Cytopathic Effect (CPE) Reduction Assay. Low passage (3-10) HFF cells were trypsinized, counted, and seeded into 96 well tissue culture plates in 0.1 ml of MEM supplemented with 10% FBS. […] The plates were allowed to dry for 24 h and the amount of CPE in each row determined using a BioTek Multiplate Autoreader. EC50 and CC50 values were determined by comparing drug treated and untreated cells using a computer program.

The mark [9] stands for this setting: Human alphaherpesvirus 1, HFF, read-out: EC50 (50% reduction in the Cytopathic Effect of the virus).
Setting [10] is: Human Cytomegalovirus Strain AD169 in HFF cells.
Where [11] appears, read: Human betaherpesvirus 5, AD169, HFF.
The mark [12] stands for this setting: Human alphaherpesvirus 2, HFF, read-out: EC50 (50% reduction in the Cytopathic Effect of the virus).
[13] abbreviates: Human betaherpesvirus 5, AD169, HFF, read-out: EC50 (50% reduction in the Cytopathic Effect of the virus).
Where [14] appears, read: Human alphaherpesvirus 3, HFF, read-out: EC50 (50% reduction in the Cytopathic Effect of the virus).
The mark [15] stands for this setting: Human betaherpesvirus 5, read-out: EC50 (50% reduction in the Cytopathic Effect of the virus), hCMV1 AD169, HFF cells.
The mark [16] stands for this setting: Human alphaherpesvirus 1, read-out: EC50 (50% reduction in the Cytopathic Effect of the virus), HSV1 E377, HFF cells.
[17] abbreviates: Human alphaherpesvirus 2, read-out: EC50 (50% reduction in the Cytopathic Effect of the virus), HSV2 G, HFF cells.

Where two headings read alike, the source gives them in different places.

A word on the EC50: it is the concentration at which the effect is half-maximal. Usually EC90 stands for the concentration needed for an effect of 90%.

Consider `N.Nc1ccn(C[C@@H](CO)OCP(=O)(O)OCCCS(=O)(=O)CCCCCCCCCCCCC2CCC2)c(=O)n1` [Compound 121, Ammonium 3-((12-cyclobutyldodecyl)sulfonyl)propyl hydrogen ((((S)-1-(4-amino-2-oxopyrimidin-1(2H)-yl)-3-hydroxypropan-2-yl)oxy)methyl)phosphonate], for which the “TI (therapeutic index derived from EC50/CC50)” value in series [1] (HSV1 E377, HFF cells) was 1159; in series [2] (mCMV Smith), >3125; in series [5] it was >2753; in series [6] (hCMV1 AD169, HFF cells) it was >19; in series [7] (VZV Ellen, HFF cells) it was 23. Further, the EC50 was 10 nM in series [1] (setting [9]); < 0.3 nM in series [2]; 10 nM in series [4] (setting [12]); < 0.3 nM in series [5]; < 10 nM in series [6] (setting [13]); 10 nM in series [7] (setting [14]). The “Therapeutic index EC90/HFF Cytotoxicity 50%” value in series [3] (setting [10]) is reported as >15. Besides, the EC90 in series [3] (setting [11]) was < 20 nM. Further, in series [4] (HSV2 G, HFF cells), the “TI (therapeutic index derived from CC50/EC50)” value worked out at 498.

As for `Nc1nc(O)c2ncn(COC(CO)CO)c2n1` [Ganciclovir, reference compound], the EC50 in series [2] (mCMV Smith) turned out to be 170 nM; in series [5], 150 nM; in series [6] (setting [15]) it was 1630 nM. Moreover, the “TI (therapeutic index derived from EC50/CC50)” value in series [2] (mCMV Smith) is given as >882; in series [5], >1030; in series [6] (hCMV1 AD169, HFF cells) it was >92. For the same compound, in series [3] (setting [10]), the “Therapeutic index EC90/HFF Cytotoxicity 50%” value worked out at 1. The EC90 in series [3] (Human betaherpesvirus 5, Human Cytomegalovirus Strain AD169 in HFF cells, read-out: EC90) is > 150000 nM.

Take `N.Nc1ccn(C[C@@H](CO)OCP(=O)(O)OCCCS(=O)(=O)CCCCCCCCCCCCCCC2CCC2)c(=O)n1` [Compound 123, Ammonium 3-((14-cyclobutyltetradecyl)sulfonyl)propyl (S)-(((1-(4-amino-2-oxopyrimidin-1(2H)-yl)-3-hydroxypropan-2-yl)oxy)methyl)phosphonate]: the “TI (therapeutic index derived from EC50/CC50)” value in series [8] (HSV1 strain DM2.1 (footnote a), HFF cells) was >142^a; in series [6] (hCMV1 AD169, HFF cells), >5. Also, the EC50 in series [8] (setting [9]) and in series [6] (setting [13]) was < 50 nM throughout.

For the compound `Nc1nc2c(ncn2COCCO)c(=O)[nH]1` [Acyclovir, reference compound], the EC50 turned out to be 960 nM in series [1] (setting [16]) and 380 nM in series [4] (setting [17]).

For the compound `N.Nc1ccn(C[C@@H](CO)OCP(=O)(O)OCCCS(=O)(=O)CCCCCCCCCCCCCC2CCC2)c(=O)n1` [Compound 122, Ammonium 3-((13-cyclobutyltridecyl)sulfonyl)propyl hydrogen ((((S)-1-(4-amino-2-oxopyrimidin-1(2H)-yl)-3-hydroxypropan-2-yl)oxy)methyl)phosphonate], the “TI (therapeutic index derived from EC50/CC50)” value in series [1] (HSV1 E377, HFF cells) is 469; in series [2] (mCMV Smith), >3125; in series [5], >2209; in series [6] (hCMV1 AD169, HFF cells), >19; in series [7] (VZV Ellen, HFF cells), 31. The EC50 in series [1] (setting [9]) was 20 nM; in series [2], < 0.3 nM; in series [4] (setting [12]), 140 nM; in series [5] it was < 0.3 nM; in series [6] (setting [13]), < 10 nM; in series [7] (setting [14]) it was 7 nM. For the same compound, in series [3] (setting [10]), the “Therapeutic index EC90/HFF Cytotoxicity 50%” value is reported as >13. Besides, the EC90 in series [3] (setting [11]) is < 20 nM. The “TI (therapeutic index derived from CC50/EC50)” value in series [4] (HSV2 G, HFF cells) was >14.

For the compound `N.Nc1ccn(C[C@@H](CO)OCP(=O)(O)OCCCS(=O)(=O)CCCCCCCCCCC2CCC2)c(=O)n1` [Compound 120, Ammonium 3-((10-cyclobutyldecyl)sulfonyl)propyl hydrogen ((((S)-1-(4-amino-2-oxopyrimidin-1(2H)-yl)-3-hydroxypropan-2-yl)oxy)methyl)phosphonate], the “TI (therapeutic index derived from EC50/CC50)” value in series [1] (HSV1 E377, HFF cells) is 149; in series [2] (mCMV Smith), >3125; in series [5] it was >2772; in series [6] (hCMV1 AD169, HFF cells) it was 74; in series [7] (VZV Ellen, HFF cells) it was 25. For the same compound, the EC50 was 70 nM in series [1] (setting [9]); < 0.3 nM in series [2]; 10 nM in series [4] (setting [12]); < 0.3 nM in series [5]; 8 nM in series [6] (setting [13]); 20 nM in series [7] (setting [14]). In addition, the “Therapeutic index EC90/HFF Cytotoxicity 50%” value in series [3] (setting [10]) is given as >37. The EC90 in series [3] (setting [11]) is < 20 nM. Also, the “TI (therapeutic index derived from CC50/EC50)” value in series [4] (HSV2 G, HFF cells) is listed as >3950.

Regarding `CCCCCCCCCCCCCCCCCCS(=O)(=O)CCCOP(=O)(OCCCS(=O)(=O)CCCCCCCCCCCCCCCCCC)C(=O)OCC` [Compound 125, Ethyl (bis(3-(octadecylsulfonyl)propoxy)phosphoryl)formate], in series [6] (setting [15]), the EC50 was 132000 nM. The “TI (therapeutic index derived from EC50/CC50)” value in series [6] (hCMV1 AD169, HFF cells) is reported as >1.

Regarding `CCOC(=O)P(=O)(OCCCS(=O)(=O)CCCCC1CCC1)OCCCS(=O)(=O)CCCCC1CCC1` [Compound 119, Ethyl (bis(3-((4-cyclobutylbutyl)sulfonyl)propoxy)phosphoryl)formate], the EC50 in series [6] (setting [15]) was > 30000 nM. In addition, the “TI (therapeutic index derived from EC50/CC50)” value in series [6] (hCMV1 AD169, HFF cells) is reported as <3.

Turning to `CC1(CCCCCCCCCCCCS(=O)(=O)CCCOP(=O)(O)CO[C@H](CO)Cn2cnc(N)cc2=O)COC1` [Compound 110, Ammonium 3-((12-(3-methyloxetan-3-yl)dodecyl)sulfonyl)propyl Hydrogen ((((S)-1-(4-amino-6-oxopyrimidin-1(6H)-yl)-3-hydroxypropan-2-yl)oxy)methyl)phosphonate], the “TI (therapeutic index derived from EC50/CC50)” value was >313 in series [1] (HSV1 E377, HFF cells); 2213 in series [2] (mCMV Smith); >3125 in series [5]; 184 in series [6] (hCMV1 AD169, HFF cells); 225 in series [7] (VZV Ellen, HFF cells). In addition, the 50% effective concentration (EC50) in series [1] (setting [16]) is 160 nM; in series [2] (mCMV Smith), < 0.3 nM; in series [4] (setting [17]) it was 40 nM; in series [5] it was < 0.3 nM; in series [6] (setting [15]) it was 10 nM; in series [7] (Human alphaherpesvirus 3, read-out: EC50 (50% reduction in the Cytopathic Effect of the virus), VZV Ellen, HFF cells), 10 nM. Besides, the “TI (therapeutic index derived from CC50/EC50)” value in series [4] (HSV2 G, HFF cells) was >1250.

Regarding `CCOC(=O)P(=O)(OCCCS(=O)(=O)CCCCCCCC1(C)COC1)OCCCS(=O)(=O)CCCCCCCC1(C)COC1` [Compound 124, Ethyl (bis(3-((7-(3-methyloxetan-3-yl)heptyl)sulfonyl)-propoxy)phosphoryl)formate], the “TI (therapeutic index derived from EC50/CC50)” value in series [1] (HSV1 E377, HFF cells) is listed as 1; in series [6] (hCMV1 AD169, HFF cells) it was 1. Moreover, the EC50 in series [1] (setting [16]) and in series [6] (setting [15]) was > 150000 nM throughout.

The values above are taken from patent US12397058B2, “Metabolically stable prodrugs” (TSRL, Inc., priority 2018, dated 2025).
